Experiment: recombinant barcode read abundance after kanamycin selection (control-corrected) (log10(CPM+1)); higher = more efficient recombination; sequences stand for … in AGTGCAGAGAAAATCGGCCAGTTTTCTCTGCCTGCAGTCCGCATGCCGT…AGATTTATGCAGCGGACTGCCTTTCTCCCAAAGTGATAAACCGGACAGTATCATGGACCGGTTTTCCCGGTAATCCGTATTTGCAAGGTTGGTTTCACT; site = the 11-nt target
Method in brief: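 Recombination efficiency comes from barcode counts at recombinant junctions, converted to counts per million, averaged and corrected against the control. Values appear as log10(CPM+1). They were obtained from a pooled E. coli screen in which each oligo paired a target with an IS621 bridge RNA target-binding loop, and cells were plated in duplicate on chloramphenicol/ampicillin LB agar or on chloramphenicol/ampicillin/kanamycin with 0.1 mM IPTG.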
For “GAGACAGCTTGGGTTCTAACCTGTTGCCT (site GAAACAGCTAG)”, the “recombinant barcode read abundance (log10)” value was 0.367.
With “GAGACAGCTTGGGTTCTAACCTGTTGCCT (site GACACAGCTAG)” the “recombinant barcode read abundance (log10)” value was 0.0512.
With “GAGACAGCTTGGGTTCTAACCTGTTGCCT (site GAGACAGCTAG)” the “recombinant barcode read abundance (log10)” value was 1.54.
In the case of “GAGACAGCTTGGGTTCTAACCTGTTGCCT (site GATACAGCTAG)”, the “recombinant barcode read abundance (log10)” value is reported as 0.504.
In the case of “GAGACGGCTTGGGTTCTAACCTGTTGCTT (site GAGACGGCTAA)”, the “recombinant barcode read abundance (log10)” value is reported as 1.22.
In the case of “GAGACGGCTTGGGTTCTAACCTGTTGCTT (site GAGCCGGCTAA)”, the “recombinant barcode read abundance (log10)” value is reported as 0.193.
For “GAGACGGCTTGGGTTCTAACCTGTTGCTT (site GAGGCGGCTAA)”, the “recombinant barcode read abundance (log10)” value was 0.424.
For “GAGACGGCTTGGGTTCTAACCTGTTGCTT (site GAGTCGGCTAA)”, the “recombinant barcode read abundance (log10)” value was 0.206.
For “GAGACTCCTTGGGTTCTAACCTGTTGCAC (site GAGACTCCTCT)”, the “recombinant barcode read abundance (log10)” value was 0.437.
In the case of “GAGACTCCTTGGGTTCTAACCTGTTGCAC (site GAGACTCCTGT)”, the “recombinant barcode read abundance (log10)” value is reported as 1.17.
With “GAGACTCCTTGGGTTCTAACCTGTTGCAG (site GAGACTCCTCT)” the “recombinant barcode read abundance (log10)” value was 0.956.
In the case of “GAGACTCCTTGGGTTCTAACCTGTTGCAG (site GAGACTCCTGT)”, the “recombinant barcode read abundance (log10)” value is reported as 0.509.
In the case of “GAGACTCCTTGGGTTCTAACCTGTTGCTA (site GAGACTCCTTA)”, the “recombinant barcode read abundance (log10)” value is reported as 0.392.
In the case of “GAGACTCCTTGGGTTCTAACCTGTTGCTA (site GCGACTCCTTA)”, the “recombinant barcode read abundance (log10)” value is reported as 0.0503.
For “GAGACTGCTTGGGTTCTAACCTGTTGCCT (site GAAACTGCTAG)”, the “recombinant barcode read abundance (log10)” value was 0.291.
In the case of “GAGACTGCTTGGGTTCTAACCTGTTGCCT (site GACACTGCTAG)”, the “recombinant barcode read abundance (log10)” value is reported as 0.068.
In the case of “GAGACTGCTTGGGTTCTAACCTGTTGCCT (site GAGACTGCTAG)”, the “recombinant barcode read abundance (log10)” value is reported as 0.865.
For “GAGACTGCTTGGGTTCTAACCTGTTGCCT (site GATACTGCTAG)”, the “recombinant barcode read abundance (log10)” value was 0.0802.
For “GAGAGCACTTGGGTTCTAACCTGTTGCCA (site GAGAGCACTTG)”, the “recombinant barcode read abundance (log10)” value was 1.23.
For “GAGAGCACTTGGGTTCTAACCTGTTGCCA (site GAGGGCACTTG)”, the “recombinant barcode read abundance (log10)” value was 0.329.
In the case of “GAGAGGACTTGGGTTCTAACCTGTTGCTT (site GAGAGGACTAA)”, the “recombinant barcode read abundance (log10)” value is reported as 1.86.
For “GAGAGGACTTGGGTTCTAACCTGTTGCTT (site GATAGAACTAA)”, the “recombinant barcode read abundance (log10)” value was 0.0753.
For “GAGATATCTTGGGTTCTAACCTGTTGCCT (site GAGAAATCTAG)”, the “recombinant barcode read abundance (log10)” value was 0.223.
With “GAGATATCTTGGGTTCTAACCTGTTGCCT (site GAGACATCTAG)” the “recombinant barcode read abundance (log10)” value was 0.339.
In the case of “GAGATATCTTGGGTTCTAACCTGTTGCCT (site GAGAGATCTAG)”, the “recombinant barcode read abundance (log10)” value is reported as 0.217.
For “GAGATATCTTGGGTTCTAACCTGTTGCCT (site GAGATATCTAG)”, the “recombinant barcode read abundance (log10)” value was 2.07.
With “GAGATCCCTTGGGTTCTAACCTGTTGCCA (site GAGATCCCTTG)” the “recombinant barcode read abundance (log10)” value was 1.22.
For “GAGATCCCTTGGGTTCTAACCTGTTGCCA (site GGGGTCCCTTG)”, the “recombinant barcode read abundance (log10)” value was 0.235.
With “GAGATCCCTTGGGTTCTAACCTGTTGCTA (site GAGATCCCTCA)” the “recombinant barcode read abundance (log10)” value was 0.427.
For “GAGATCCCTTGGGTTCTAACCTGTTGCTA (site GAGATCCCTTA)”, the “recombinant barcode read abundance (log10)” value was 1.93.
In the case of “GAGATCCCTTGGGTTCTAACCTGTTGCTG (site GAGATCCCTCA)”, the “recombinant barcode read abundance (log10)” value is reported as 2.37.
For “GAGATCCCTTGGGTTCTAACCTGTTGCTG (site GAGATCCCTTA)”, the “recombinant barcode read abundance (log10)” value was 0.188.
For “GAGATGACTTGGGTTCTAACCTGTTGCGG (site GAGACGACTCG)”, the “recombinant barcode read abundance (log10)” value was 0.0565.
For “GAGATGACTTGGGTTCTAACCTGTTGCGG (site GAGATGACTCC)”, the “recombinant barcode read abundance (log10)” value was 2.29.
For “GAGCAACCTTGGGTTCTAACCTGTTGCCG (site GAGCAACCTCG)”, the “recombinant barcode read abundance (log10)” value was 1.07.
For “GAGCAACCTTGGGTTCTAACCTGTTGCCG (site GAGCCACCTTG)”, the “recombinant barcode read abundance (log10)” value was 0.017.
With “GAGCAGACTTGGGTTCTAACCTGTTGCCT (site GAGCAGACTAG)” the “recombinant barcode read abundance (log10)” value was 0.931.
For “GAGCAGACTTGGGTTCTAACCTGTTGCCT (site GAGCCGACTAG)”, the “recombinant barcode read abundance (log10)” value was 0.146.
For “GAGCAGACTTGGGTTCTAACCTGTTGCCT (site GAGCGGACTAG)”, the “recombinant barcode read abundance (log10)” value was 0.235.
For “GAGCAGACTTGGGTTCTAACCTGTTGCCT (site GAGCTGACTAG)”, the “recombinant barcode read abundance (log10)” value was 0.631.
For “GAGCCACCTTGGGTTCTAACCTGTTGCCA (site GAGCAACCTCG)”, the “recombinant barcode read abundance (log10)” value was 0.0457.
For “GAGCCACCTTGGGTTCTAACCTGTTGCCA (site GAGCCACCTTG)”, the “recombinant barcode read abundance (log10)” value was 1.02.
For “GAGCGAGCTTGGGTTCTAACCTGTTGCCG (site GAGCGAGCTCA)”, the “recombinant barcode read abundance (log10)” value was 0.199.
For “GAGCGAGCTTGGGTTCTAACCTGTTGCCG (site GAGCGAGCTCC)”, the “recombinant barcode read abundance (log10)” value was 0.582.
In the case of “GAGCGAGCTTGGGTTCTAACCTGTTGCCG (site GAGCGAGCTCG)”, the “recombinant barcode read abundance (log10)” value is reported as 1.11.
For “GAGCGAGCTTGGGTTCTAACCTGTTGCCG (site GAGCGAGCTCT)”, the “recombinant barcode read abundance (log10)” value was 0.308.
With “GAGCGATCTTGGGTTCTAACCTGTTGCGT (site GAGCGATCTAC)” the “recombinant barcode read abundance (log10)” value was 1.85.
With “GAGCGATCTTGGGTTCTAACCTGTTGCGT (site GAGTGAGCTAC)” the “recombinant barcode read abundance (log10)” value was 0.0311.
With “GAGCGCTCTTGGGTTCTAACCTGTTGCCT (site GAGCGCTCTAG)” the “recombinant barcode read abundance (log10)” value was 1.48.
With “GAGCGCTCTTGGGTTCTAACCTGTTGCCT (site GAGTGCTCTAC)” the “recombinant barcode read abundance (log10)” value was 0.0357.
For “GAGCGCTCTTGGGTTCTAACCTGTTGCTG (site GAGCGCTCTAA)”, the “recombinant barcode read abundance (log10)” value was 0.0574.
For “GAGCGCTCTTGGGTTCTAACCTGTTGCTG (site GAGCGCTCTCA)”, the “recombinant barcode read abundance (log10)” value was 1.05.
With “GAGCGCTCTTGGGTTCTAACCTGTTGCTG (site GAGCGCTCTGA)” the “recombinant barcode read abundance (log10)” value was 0.207.
With “GAGCGCTCTTGGGTTCTAACCTGTTGCTG (site GAGCGCTCTTA)” the “recombinant barcode read abundance (log10)” value was 0.0132.
With “GAGCGGACTTGGGTTCTAACCTGTTGCTA (site GAGCGAGCTTA)” the “recombinant barcode read abundance (log10)” value was 0.0384.
In the case of “GAGCGGACTTGGGTTCTAACCTGTTGCTA (site GAGCGGACTTA)”, the “recombinant barcode read abundance (log10)” value is reported as 1.83.
With “GAGCGGCCTTGGGTTCTAACCTGTTGCAG (site ATTTAAGCTAG)” the “recombinant barcode read abundance (log10)” value was 0.224.
For “GAGCGGCCTTGGGTTCTAACCTGTTGCAG (site GAGCGGCCTCT)”, the “recombinant barcode read abundance (log10)” value was 1.72.
For “GAGCTAGCTTGGGTTCTAACCTGTTGCGC (site GAGCTAGCTAC)”, the “recombinant barcode read abundance (log10)” value was 0.109.
For “GAGCTAGCTTGGGTTCTAACCTGTTGCGC (site GAGCTAGCTGC)”, the “recombinant barcode read abundance (log10)” value was 2.29.
In the case of “GAGCTGCCTTGGGTTCTAACCTGTTGCCA (site AGCTAATCTAA)”, the “recombinant barcode read abundance (log10)” value is reported as 0.274.
In the case of “GAGCTGCCTTGGGTTCTAACCTGTTGCCA (site GAGCTGCCTTG)”, the “recombinant barcode read abundance (log10)” value is reported as 1.66.
With “GAGCTTACTTGGGTTCTAACCTGTTGCCT (site GAGCTTACTAG)” the “recombinant barcode read abundance (log10)” value was 0.618.
With “GAGCTTACTTGGGTTCTAACCTGTTGCCT (site GCGCTTACTAG)” the “recombinant barcode read abundance (log10)” value was 0.0105.
In the case of “GAGCTTACTTGGGTTCTAACCTGTTGCCT (site GGGCTTACTAG)”, the “recombinant barcode read abundance (log10)” value is reported as 0.299.
In the case of “GAGCTTACTTGGGTTCTAACCTGTTGCCT (site GTGCTTACTAG)”, the “recombinant barcode read abundance (log10)” value is reported as 0.158.
With “GAGGAACCTTGGGTTCTAACCTGTTGCCT (site AAGGAACCTAG)” the “recombinant barcode read abundance (log10)” value was 1.57.
With “GAGGAACCTTGGGTTCTAACCTGTTGCCT (site CAGGAACCTAG)” the “recombinant barcode read abundance (log10)” value was 1.28.
For “GAGGAACCTTGGGTTCTAACCTGTTGCCT (site GAGGAACCTAG)”, the “recombinant barcode read abundance (log10)” value was 2.12.
For “GAGGAACCTTGGGTTCTAACCTGTTGCCT (site TAGGAACCTAG)”, the “recombinant barcode read abundance (log10)” value was 1.44.
In the case of “GAGGAAGCTTGGGTTCTAACCTGTTGCCT (site GAGGAAGCTAG)”, the “recombinant barcode read abundance (log10)” value is reported as 1.81.
For “GAGGAAGCTTGGGTTCTAACCTGTTGCCT (site GCGGAAGCTAG)”, the “recombinant barcode read abundance (log10)” value was 0.545.
In the case of “GAGGAAGCTTGGGTTCTAACCTGTTGCCT (site GGGGAAGCTAG)”, the “recombinant barcode read abundance (log10)” value is reported as 0.316.
With “GAGGAAGCTTGGGTTCTAACCTGTTGCCT (site GTGGAAGCTAG)” the “recombinant barcode read abundance (log10)” value was 0.473.
For “GAGGACTCTTGGGTTCTAACCTGTTGCCC (site GAGGACTCTAG)”, the “recombinant barcode read abundance (log10)” value was 2.
In the case of “GAGGACTCTTGGGTTCTAACCTGTTGCCC (site GAGGACTCTCG)”, the “recombinant barcode read abundance (log10)” value is reported as 0.136.
In the case of “GAGGACTCTTGGGTTCTAACCTGTTGCCC (site GAGGACTCTGG)”, the “recombinant barcode read abundance (log10)” value is reported as 2.39.
For “GAGGACTCTTGGGTTCTAACCTGTTGCCC (site GAGGACTCTTG)”, the “recombinant barcode read abundance (log10)” value was 0.682.
In the case of “GAGGAGTCTTGGGTTCTAACCTGTTGCCG (site AGAACACCTAA)”, the “recombinant barcode read abundance (log10)” value is reported as 0.0129.
With “GAGGAGTCTTGGGTTCTAACCTGTTGCCG (site GAGGAGTCTCG)” the “recombinant barcode read abundance (log10)” value was 1.3.
For “GAGGAGTCTTGGGTTCTAACCTGTTGCCT (site GAGAAGTCTAG)”, the “recombinant barcode read abundance (log10)” value was 1.02.
For “GAGGAGTCTTGGGTTCTAACCTGTTGCCT (site GAGCAGTCTAG)”, the “recombinant barcode read abundance (log10)” value was 0.0568.
With “GAGGAGTCTTGGGTTCTAACCTGTTGCCT (site GAGGAGTCTAG)” the “recombinant barcode read abundance (log10)” value was 2.55.
For “GAGGAGTCTTGGGTTCTAACCTGTTGCCT (site GAGTAGTCTAG)”, the “recombinant barcode read abundance (log10)” value was 0.171.
For “GAGGATCCTTGGGTTCTAACCTGTTGCCT (site GAGGATCCTAG)”, the “recombinant barcode read abundance (log10)” value was 2.12.
In the case of “GAGGATCCTTGGGTTCTAACCTGTTGCCT (site GGGGATCCTAG)”, the “recombinant barcode read abundance (log10)” value is reported as 0.457.

Reference: the supplement of paper PMC11208160
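Also: IS621 recombinase and bridge RNA in Escherichia coli cells.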
